In brackets after ≈: the same amount, converted by molar mass. Values belong to the compound of their own block, whether it stands above or below them.
Assays:
Format in all cases: physicochemical
[1] = Competition slurries between crystalline forms; conditions: ethanol, agitating overnight
[2] = Form change on heating, drying or exposure to ambient conditions; conditions: ambient temperature and humidity / storage at ambient conditions
Description: Form V has only been truly isolated by growth of single crystals.
Isolated solids were dried with filter paper to remove residual solvents and analyzed by DSC, TGA and KF. […] (FIG. 45).
The sample was stirred for more than two months before being placed into storage without agitation and at ambient conditions. […] The material was collected by vacuum filtration and dried under ambient conditions. […] (FIG. 48).

[3] = Stable form screen of Compound I (suspension in solvents at RT, solids analysed by XRPD); conditions: starting from Compound I Form I
Protocol: Compound I Form I was suspended with stirring in capped glass vials at RT. Samples from the suspensions were centrifuged/filtered and the isolated solids and liquids were analyzed. Solids were analyzed by XRPD and liquids were analyzed for solubility by […]. Sampling and analysis were performed after one day and greater than fourteen days.

[4] = Solubility of Compound I in EtOH; conditions: ethanol, organic solvent or mixture
Protocol: The crystallization was then continued in line with Method 1 outlined above. After filtration, the Form I solids are dried in a vacuum oven at about 45-50° C.

Compound: Cc1cc(F)c(C(=O)Nc2cccc(-c3nncn3C(C)C)n2)cc1-n1cnc(C2CC2)c1 [Compound I Form VII, 5-(4-cyclopropyl-1H-imidazol-1-yl)-N-(6-(4-isopropyl-4H-1,2,4-triazol-3-yl)pyridin-2-yl)-2-fluoro-4-methylbenzamide]
outcome of competitive slurry with Compound I Form I [1]: full conversion of Compound I Form VII to Compound I Form I
form change at ambient conditions [2]: rapidly converts back to Compound I Form IV

14+ Day XRPD ([3]; suspended in 2-propanol at RT): Form I
24 Hour XRPD ([3]; suspended in 2-propanol at RT): Form I
14+ Day XRPD ([3]; suspended in ACN at RT): Form I
24 Hour XRPD ([3]; suspended in ACN at RT): Form I
24 Hour XRPD ([3]; suspended in DCM at RT): V, II
14+ Day XRPD ([3]; suspended in EtOAc at RT): Form I
24 Hour XRPD ([3]; suspended in EtOAc at RT): Form I
14+ Day XRPD ([3]; suspended in Ethanol at RT): Form I
24 Hour XRPD ([3]; suspended in Ethanol at RT): Form I
14+ Day XRPD ([3]; suspended in IPAC at RT): Form I
24 Hour XRPD ([3]; suspended in IPAC at RT): Form I
14+ Day XRPD ([3]; suspended in MTBE at RT): Form I
24 Hour XRPD ([3]; suspended in MTBE at RT): Form I
14+ Day XRPD ([3]; suspended in THF at RT): Form I
24 Hour XRPD ([3]; suspended in THF at RT): Form I
14+ Day XRPD ([3]; suspended in acetone at RT): Form I
24 Hour XRPD ([3]; suspended in acetone at RT): Form I
14+ Day XRPD ([3]; suspended in methanol at RT): Form I
24 Hour XRPD ([3]; suspended in methanol at RT): Form I
14+ Day XRPD ([3]; suspended in n-heptane at RT): Form I
24 Hour XRPD ([3]; suspended in n-heptane at RT): Form I
14+ Day XRPD ([3]; suspended in water at RT): Form I
24 Hour XRPD ([3]; suspended in water at RT): Form I
solubility [4]: ~20 mg/mL (≈ 44.9 mM)
Compound: Cc1cc(F)c(C(=O)Nc2cccc(-c3nncn3C(C)C)n2)cc1-n1cnc(C2CC2)c1 [Compound I, 5-(4-cyclopropyl-1H-imidazol-1-yl)-N-(6-(4-isopropyl-4H-1,2,4-triazol-3-yl)pyridin-2-yl)-2-fluoro-4-methylbenzamide]
